Laboratory results from patent publication US20220152100A1, “METHODS FOR CONTROLLED ACTIVATION OR ELIMINATION OF THERAPEUTIC CELLS” (Bellicum Pharmaceuticals, Inc., priority 2014, published 2022).

How the values were obtained:
iCasp9-positive MSCs = test: In vivo killing of iCasp9-transduced MSCs in SCID mice (luminescence, qPCR)
Description: All mouse experiments were performed in accordance with the Baylor College of Medicine animal husbandry guidelines. To assess the persistence of modified MSCs in vivo, a SCID mouse model was used in conjunction with an in vivo imaging system. MSCs were transduced with retroviruses coding for the enhanced green fluorescent protein-firefly luciferase (eGFP-FFLuc) gene alone or together with the iCasp9-ΔCD19 gene. Cells were sorted for eGFP positivity by fluorescence activated cell sorting using a MoFlo flow cytometer (Beckman Coulter, Fullerton, Calif.). Doubly transduced cells were also stained with PE-conjugated anti-CD19 and sorted for PE-positivity. SCID mice (8-10 weeks old) were injected subcutaneously with 5×10^5 MSCs with and without iCasp9-ΔCD19 in opposite flanks. […] For in vivo imaging of MSCs expressing eGFP-FFLuc, mice were injected intraperitoneally with D-luciferin (150 mg/kg) and analyzed using the Xenogen-IVIS Imaging System. Total luminescence (a measurement proportional to the total labeled MSCs deposited) at each time point was calculated by automatically defining regions-of-interest (ROIs) over the MSC implantation sites. These ROIs included all areas with luminescence signals at least 5% above background. Total photon counts were integrated for each ROI and an average value calculated. […]

Jurkat = test: CID-induced apoptosis (annexin V) in transduced Jurkat cells; assay type: cell-based, human; conditions: iFas-transduced Jurkat, 10 nM, 8 hours
differentiated MSCs = test: CID-induced apoptosis of differentiated MSC progeny (TUNEL, cell density); conditions: adipocytic differentiated iCasp9-positive cells, 50 nM, 24 hours; from 584
[1] = tested on: EBV-specific CTL lines (EBV-CTL); test: CID-induced elimination/apoptosis of transduced EBV-CTLs (GFP, annexin V/7-AAD flow cytometry); assay type: cell-based, human; conditions: for elimination of GFP+ cells: GFPhigh
[2] = tested on: EBV-specific and CMV-specific T cells; test: Pentamer analysis of virus-specific T cells after dimerizer; assay type: cell-based, human; conditions: 10 nM after 4 days reactivation with allogeneic PBMC
MT-2 = test: CID-induced apoptosis (annexin V) in transduced MT-2 cells; assay type: cell-based, human; conditions: 8 hours
[3] = T cells selected for high expression, overnight 10 nM

Structure (SMILES): CC[C@H](C(=O)N1CCCC[C@H]1C(=O)O[C@H](CCc1ccc(OC)c(OC)c1)c1cccc(OCC(=O)NCC(CNC(=O)COc2cccc([C@@H](CCc3ccc(OC)c(OC)c3)OC(=O)[C@@H]3CCCCN3C(=O)[C@@H](CC)c3cc(OC)c(OC)c(OC)c3)c2)CN(C)C)c1)c1cc(OC)c(OC)c(OC)c1 [AP20187]
- surviving iCasp9-positive cells, of the original population (iCasp9-positive MSCs; after one week): 0.7%
- killing of iCasp9-positive cells (iCasp9-positive MSCs; two injections of 50 μg 24 hours apart, qPCR): > 99%
- apoptotic cells (annexin-V) (Jurkat): 56.4%+/−15.6
- cell density (differentiated MSCs): < 14 cells/mm2
- concentration sufficient to obtain the maximal deletion effect ([1]; F-Casp9M.I.GFPhigh, survival of GFP+ cells on day 7): 1 nM
- time to apoptotic characteristics (cell shrinkage and fragmentation) ([1]; GFPhigh-selected cells, 10 nM): ≤ 14 h
- deletion of transduced cells ([1]; GFPhigh-selected iCasp9M cells, 10 nM, day 7): 99.1%
- apoptotic (annexin-V+/7-AAD−) phenotype [1, 3]: 64%
- necrotic (annexinV+/7-AAD+) phenotype [1, 3]: 30%
- reduction in mean fluorescence intensity of GFP in surviving CTLs ([1]; iCasp9M-transduced CTLs after CID): 70%
- elimination of GFP+ cells ([1]; iCasp9M-transduced CTLs, 10 nM, day 7): 99.2%+/−0.14
- elimination of GFP+ cells ([1]; iFas-transduced CTLs, 10 nM, day 7): 89.3%+/−4.9
- effect on virus-specific T cells (HLA pentamers, EBV and CMV) [2]: spares (and thereby enriches) viral reactive subpopulations
- apoptotic cells (annexin-V) (MT-2; iCasp9M-transduced MT-2, 10 nM): 57.9%+/−11.9
- apoptotic cells (annexin-V) (MT-2; iFas-transduced MT-2, 10 nM): 19.3%+/−8.4
